{
  "source": "patent US20110182943A1",
  "about": "“METHODS OF IMMUNE OR HEMATOLOGICAL ENHANCEMENT, INHIBITING TUMOUR FORMATION OR GROWTH, AND TREATING OR PREVENTING CANCER, CANCER SYMPTOMS, OR THE SYMPTOMS OF CANCER TREATMENTS” (FONTERRA CO-OPERATIVE GROUP LIMITED, priority 2007, published 2011)",
  "key": {"4T1 tumour cells": {"test_system": "4T1 tumour cells", "test": "4T1 breast cancer primary tumour growth", "type": "in vivo, Balb/c mice", "method": "Tumours were established by s.c. injection of 2×10^5 EL-4 or 2×10^4 4T1 cells into the left flank of mice, and tumour growth determined by measuring two perpendicular diameters. Animals were euthanased when tumours reached more than 1.0 cm in diameter, in accord with Animal Ethics Approval (University of Auckland). All experiments included 5 or 6 mice per treatment group, unless otherwise indicated. Paclitaxel (30 mg dissolved in 5 ml of Cremophor® EL and dehydrated alcohol) was diluted in 0.9% NaCl and administered i.p. at 30 mg/Kg.\nGroups of 6 Balb/c mice were fed the base AIN-93 diet, or the same diet substituted with 5% milk fat, representing ˜71% of the fat component of the diet. Mice were challenged subcutaneously with 2×10^4 4T1 tumour cells two weeks after being placed on the diets. The mice were monitored for tumour growth, and tumour size was measured every three days."}, "[1]": {"conditions": "single injection 300 mg/Kg i.p.; control diet", "procedure": "(§1) Groups of six C57BL/6 mice were fed an AIN93G diet or the same diet substituted with either 5%, 25% or 70% milk fat, and after 4 weeks of feeding were injected intraperitoneally with cyclophosphamide (300 mg/Kg of body weight) at day 0. The mice were killed 4, 8, and 12 days later, and tissues analyzed for the side-effects of drug treatment, as described below."}, "[2]": {"conditions": "day 4; 300 mg/Kg i.p.; irrespective of the diet fed", "procedure": "Cyclophosphamide, diluted in PBS, was administered i.p. at 300 mg/Kg.\nas §1"}, "4T1 primary tumours": {"test_system": "4T1 primary tumours", "test": "4T1 tumour angiogenesis (anti-CD31 staining)", "type": "in vivo, Balb/c mice", "conditions": "day 35", "procedure": "To determine tumour vascularity, 10-μm frozen tumour sections were fixed with acetone, rinsed with PBS, blocked with 2% BSA for 2 hr, and incubated overnight with the anti-CD31 antibody MEC13.3, or an anti-CD105 mAb. They were subsequently incubated for 30 min with secondary antibodies using the VECTASTAIN Universal Quick kit (Vector Laboratories, Burlingame, Calif., USA); and developed with Sigma FAST DAB (3,3′-diaminobenzidine tetrahydrochloride) and CoCl2 enhancer tablets (Sigma), and counterstained with hematoxylin. Stained blood vessels were counted in five or six blindly chosen random fields (0.155 mm^2) at ×40 magnification, and the mean of the highest three counts was calculated. […]\nThe above 4T1 primary tumours (Example 8; day 35) of untreated mice fed the control diet, paclitaxel-treated mice fed the control diet, untreated mice fed milk fat, and paclitaxel-treated mice fed milk fat were excised, sectioned, and stained with an anti-CD31 antibody to identify vascular endothelial cells so as to measure tumour angiogenesis. Blood vessels stained with the anti-CD31 mAb were counted in blindly chosen random fields to record mean vessel density (8A), or the median distance to the nearest CD31 mAb-labeled blood vessel from an array point (8B)."}, "[3]": {"conditions": "paclitaxel 30 mg/kg i.p.", "method": "The jejuni from mice were fixed in 4% paraformaldehyde, embedded in paraffin, sectioned at 4 μm, and sections stained with hematoxylin-eosin. In each specimen, 20 well preserved villi were randomly selected and their lengths were measured by microscopy using an objective micrometer.\nTo determine whether milk fat protected the gut against paclitaxel-induced damage, groups of 6 Balb/c mice were fed the base AIN-93 diet, or the same diet substituted with 5% milk fat, representing ˜71% of the fat component of the diet. Two weeks later each mouse received an intraperitoneal injection of paclitaxel (30 mg/kg body weight). One week later they were killed and the jejunum was removed. Paraffin-embedded sections of the jejunum of mice treated with control diet, milk fat diet, control diet plus paclitaxel, and milk fat diet plus paclitaxel were stained with hematoxylin and eosin."}, "[4]": {"test": "Body, tumour, organ and tissue weights (cachexia) in 4T1 tumour-bearing mice", "method": "Tumours were established by s.c. injection of 2×10^5 EL-4 or 2×10^4 4T1 cells into the left flank of mice, and tumour growth determined by measuring two perpendicular diameters. […] All experiments included 5 or 6 mice per treatment group, unless otherwise indicated. Paclitaxel (30 mg dissolved in 5 ml of Cremophor® EL and dehydrated alcohol) was diluted in 0.9% NaCl and administered i.p. at 30 mg/Kg. In the case of the 4T1 metastatic model of breast cancer, after the mice were euthanased at the end of experiments, the organs including lung, liver and spleen were removed and weighed.\nThe mice were weighed at the start and end of the experiment. After the mice were euthanased, the tumours were excised and weighed. To determine the extent of adipose tissue and muscle wasting, epididymal adipose tissue and the left gastrocnemius muscle were dissected and weighed. The carcass weight was calculated as the difference in weight between the whole body and the tumour."}, "[5]": {"test_system": "jejunal γ-glutamyl transpeptidase (γ-GGT)", "conditions": "paclitaxel 30 mg/kg i.p.", "method": "The activity of jejunal γ-glutamyl transpeptidase (γ-GGT) was recorded as a separate measure of gut damage, as described previously Ziotnik et al., 2005). A segment of the jejunum (approximately 5 cm) was excised and flushed with 10 ml of PBS, and cut into two 2 cm^2 segments which were placed into 1.0 ml of 1.0% Triton X-100, 0.15 M NaCl, 100 mM Tris, pH 8.0 (Tris buffer). Twenty microlitres of a solution containing 0.3 ml of 100 mM glycyl-glycine, pH 8.0, 0.08 ml Tris buffer, 0.5 ml of 5 mM γ-glutamyl-p-nitroanilide was added to final volume of 0.9 ml. The gut slices were incubated for 10 min in a shaking water bath at 37° C., and γ-GGT activity read at 405 nm. Results were expressed as units of γ-GGT activity per cm of jejunum, where one unit is defined as the γ-GGT activity that releases 1.0 mol of p-nitroaniline in 1 h.\nTo determine whether milk fat protected the gut against paclitaxel-induced damage, groups of 6 Balb/c mice were fed the base AIN-93 diet, or the same diet substituted with 5% milk fat, representing ˜71% of the fat component of the diet. Two weeks later each mouse received an intraperitoneal injection of paclitaxel (30 mg/kg body weight). One week later they were killed and the jejunum was removed."}, "[6]": {"test": "Paclitaxel-induced apoptosis in jejunal crypts (TUNEL)", "type": "in vivo, Balb/c mice", "conditions": "paclitaxel 30 mg/kg i.p.", "procedure": "Tumours were excised and immediately frozen in dry ice, and stored at −70° C. for later in situ detection of apoptotic cells in tumours. Frozen serial sections of 6-μm thickness were fixed with paraformaldehyde solution (4% in PBS, pH 7.4), and permeabilized with a solution containing 0.1% Triton X-100 and 0.1% sodium citrate. They were incubated with 20 μl TUNEL reagent (In Situ apoptosis detection kit from Boehringer Mannheim, Germany) for 60 min at 37° C., and examined by fluorescence microscopy. Adjacent sections were counter-stained with haematoxylin to count the total number of cells, or the number of apoptotic cells in ten randomly selected fields (magnification of ×40). The apototic index (AI) was calculated as the number of apoptotic cells×100/total number of nucleated cells. For detection of apoptotic cells in vitro, the numbers of apoptotic and necrotic tumour cells were measured by staining with annexin-V-fluos, TUNEL, and trypan blue. For measurement of gut apoptosis, jejunal sections were stained by the TUNEL method using a DeadEnd™ Fluorometric TUNEL System (Promega, Madison, Wis., USA). Apoptotic cells in 10 randomly selected cypts were counted, and the data expressed as apoptotic bodies per crypt."}, "[7]": {"test": "Blood cell counts in 4T1 tumour-bearing mice", "type": "in vivo, Balb/c mice"}, "[8]": {"test_system": "4T1 breast cancer tumours", "test": "4T1 lung surface metastases", "type": "in vivo, Balb/c mice", "conditions": "day 35", "excerpt": "Suppression of lung metastases: The 4T1 breast cancer cell line is highly metastatic and disseminates to the lung and liver. The lungs of the mice in Example 8 (day 35) were inspected for tumours and micrometastases. The mean numbers of tumours on the lung surface of untreated mice fed the control diet, paclitaxel-treated mice fed the control diet, untreated mice fed milk fat, and paclitaxel-treated mice fed milk fat were 32, 18, 22, and 10, respectively (FIG. 6)."}, "[9]": {"test_system": "4T1 breast cancer tumours", "test": "4T1 liver metastases", "type": "in vivo, Balb/c mice", "conditions": "day 35", "excerpt": "Suppression of liver metastases: Similarly, the livers of the above mice were inspected for tumours and micrometastases. The livers were removed, section, and stained with hematoxylin/eosin, and the numbers of metastatic nodules inside the livers were counted."}, "EL-4 tumour cells": {"test_system": "EL-4 tumour cells", "test": "EL-4 lymphoma tumour growth in mice fed experimental diets", "type": "in vivo, C57BL/6 mice", "excerpt": "Mice were challenged subcutaneously with 2×10^5 EL-4 tumour cells two weeks after being placed on the diets. Tumour size as measured by two perpendicular diameters (in centimetres) was monitored until day 91, or until tumours reached 1 cm in diameter. Each point represents the mean tumour size with 95% confidence intervals for either 6 mice, or the number of mice indicated.\nGroups of six mice were fed a control AIN-93G diet, diets containing either 28 g Lf+ or 120 g of milk fat (AMF) per 2.4 Kg of diet, or a diet containing a combination of both Lf and milk fat. Day 0 refers to the day the mice were placed on their diets. After 2 weeks on the diets, 2×10^5 EL-4 cells were injected into the flanks of mice. Tumour size as measured by two perpendicular diameters (in centimetres) was monitored until day 56. Each point represents the mean tumour size with 95% confidence intervals for either 6 mice, or the number of mice indicated.\nMice were challenged subcutaneously with EL-4 tumour cells two weeks after being placed on the diets. Tumour size was again measured by two perpendicular diameters (in centimetres)."}, "[10]": {"conditions": "paclitaxel chemotherapy, control diet"}, "[11]": {"conditions": "tumour-bearing mice, mean ± SEM, n = 6"}},
  "data": [
    {"compound": "CCCCCC/C=C/C=C\\CCCCCCCC(=O)O", "note": "(single isomer, unassigned) [c-9, t-11 CLA isomer]", "values": [
      {"measurement": "synergy with Lf+", "setting": "4T1 tumour cells; 5 g per 2.4 Kg of diet", "result": "no synergy"},
      {"measurement": "effect on growth of 4T1 tumours", "setting": "4T1 tumour cells; 5 g per 2.4 Kg of diet, 3% of the fat component", "result": "only wealdy inhibited"}
    ]},
    {"compound": "O=P1(N(CCCl)CCCl)NCCCO1", "note": "(centres unmarked) [cyclophosphamide]", "values": [
      {"measurement": "reduction in average length of the villi compared with healthy control mice", "setting": "[1]", "result": 65, "unit": "%"},
      {"measurement": "reduction of peripheral WBC count", "setting": "[2]", "result": "more than 90%"}
    ]},
    {"compound": "CC(=O)O[C@H]1C(=O)[C@@]2(C)[C@H]([C@H](OC(=O)c3ccccc3)[C@]3(O)C[C@H](OC(=O)[C@H](O)[C@@H](NC(=O)c4ccccc4)c4ccccc4)C(C)=C1C3(C)C)[C@]1(OC(C)=O)CO[C@@H]1C[C@@H]2O", "note": "[paclitaxel]", "values": [
      {"measurement": "increase in median distance to the nearest CD31+ vessels compared with untreated mice fed the control diet", "setting": "4T1 primary tumours", "result": 71, "unit": "%"},
      {"measurement": "reduction in microvessel density (CD31+ vessels) compared with untreated mice fed the control diet", "setting": "4T1 primary tumours", "result": 37, "unit": "%"},
      {"measurement": "appearance of jejunal villi in sections", "setting": "[3]; hematoxylin and eosin", "result": "broken and flattened villi"},
      {"measurement": "reduction in average length of the villi compared with control mice", "setting": "[3]; jejunum one week later", "result": 61, "unit": "%"},
      {"measurement": "reduction in lung weight compared to untreated mice fed the control diet", "setting": "[4]; day 35, tumour-bearing mice", "result": 30, "unit": "%"},
      {"measurement": "reduction in spleen weights compared to tumour-bearing mice fed the control diet", "setting": "[4]; [10]", "result": 8.5, "unit": "%"},
      {"measurement": "Body weight", "setting": "[4]; [11]", "result": "17.7 ± 1.5", "unit": "g"},
      {"measurement": "Carcass body weight", "setting": "[4]; [11]", "result": "17.6 ± 1.4", "unit": "g"},
      {"measurement": "Epididymal adipose tissue", "setting": "[4]; [11]", "result": "24.3 ± 6.7", "unit": "mg"},
      {"measurement": "Gastrocnemius muscle", "setting": "[4]; [11]", "result": "101.2 ± 9.3", "unit": "mg"},
      {"measurement": "Liver", "setting": "[4]; [11]", "result": "1210.1 ± 72.4", "unit": "mg"},
      {"measurement": "Lung", "setting": "[4]; [11]", "result": "274.5 ± 30.6^3 mg"},
      {"measurement": "Spleen", "setting": "[4]; [11]", "result": "72.35 ± 8.2^3 mg"},
      {"measurement": "Tumor", "setting": "[4]; [11]", "result": "103.4 ± 24.1^3 mg"},
      {"measurement": "reduction in jejunal γ-GGT activity compared to untreated control mice", "setting": "[5]", "result": 56, "unit": "%"},
      {"measurement": "increase in apoptotic body count per crypt compared with untreated mice", "setting": "[6]", "result": 6, "unit": "fold"},
      {"measurement": "reduction in RBC count compared to tumour-bearing mice fed the control diet", "setting": "[7]; [10]", "result": 49, "unit": "%"},
      {"measurement": "reduction in WBC count compared to tumour-bearing mice fed the control diet", "setting": "[7]; [10]", "result": 44, "unit": "%"},
      {"measurement": "RBC", "setting": "[7]; [11]", "result": "3.21 ± 0.74^3 ×10^6/μl"},
      {"measurement": "WBC", "setting": "[7]; [11]", "result": "2.37 ± 0.39^3 ×10^3/μl"},
      {"measurement": "mean number of tumours on the lung surface", "setting": "[8]", "result": 18},
      {"measurement": "reduction in numbers of tumours on the lung surface compared with untreated mice fed the control diet", "setting": "[8]", "result": 44, "unit": "%"},
      {"measurement": "mean number of liver metastases", "setting": "[9]", "result": 59},
      {"measurement": "reduction in numbers of tumours in the liver compared with untreated mice fed the control diet", "setting": "[9]", "result": 45, "unit": "%"},
      {"measurement": "reduction in tumour size compared with untreated mice fed the control diet", "setting": "4T1 tumour cells; day 35, 5% milk fat diet, paclitaxel 30 mg/kg i.p. at ~0.5 cm", "result": 31, "unit": "%"}
    ]},
    {"compound": "sphingomyelin", "values": [
      {"measurement": "delay of tumour growth in two mice", "setting": "EL-4 tumour cells; 1.2 g per 2.4 Kg of diet", "result": "~1", "unit": "week"},
      {"measurement": "delay of tumour growth in two other mice", "setting": "EL-4 tumour cells; 1.2 g per 2.4 Kg of diet", "result": "~2", "unit": "weeks"},
      {"measurement": "effect on tumour growth / tumorigenesis in individual mice", "setting": "EL-4 tumour cells; groups of five mice, per 2.4 Kg of diet: 28 g Lf+, 120 g Phospholac 600, 1.2 g sphingomyelin", "result": "no appreciable affect on tumour growth of the remaining mouse"}
    ]}
  ]
}
